Reference: ChEMBL document CHEMBL4359905, “Discovery, structural insight, and bioactivities of BY27 as a selective inhibitor of the second bromodomains of BET proteins” (Eur J Med Chem, 2019)

Legend:
[1] = test system: MV4-11; experiment: Antiproliferative activity against human MV4-11 cells assessed as cell growth inhibition after 4 days by CCK8 assay; type: functional, cell-based; settings: MV4-11, 96 h
[2] = target: T1, Bromodomain-containing protein 4 (Homo sapiens, UniProt O60885); experiment: Binding affinity to human recombinant BRD4 BD1 (44 to 168 residues) by fluorescence polarization assay
[3] = target: T1, Bromodomain-containing protein 4; experiment: Binding affinity to human recombinant BRD4 BD2 (333 to 460 residues) by fluorescence polarization assay
[4] = test system: MM1.S; experiment: Antiproliferative activity against human MM1S cells assessed as cell growth inhibition after 4 days by CCK8 assay; type: functional, cell-based; settings: 96 h
[5] = target: T2, Bromodomain-containing protein 3 (Homo sapiens, UniProt Q15059); experiment: Binding affinity to human recombinant BRD3 BD1 (24 to 144 residues) by fluorescence polarization assay
Target sequence in this assay (Q15059 whole entry, the tested form may be a part): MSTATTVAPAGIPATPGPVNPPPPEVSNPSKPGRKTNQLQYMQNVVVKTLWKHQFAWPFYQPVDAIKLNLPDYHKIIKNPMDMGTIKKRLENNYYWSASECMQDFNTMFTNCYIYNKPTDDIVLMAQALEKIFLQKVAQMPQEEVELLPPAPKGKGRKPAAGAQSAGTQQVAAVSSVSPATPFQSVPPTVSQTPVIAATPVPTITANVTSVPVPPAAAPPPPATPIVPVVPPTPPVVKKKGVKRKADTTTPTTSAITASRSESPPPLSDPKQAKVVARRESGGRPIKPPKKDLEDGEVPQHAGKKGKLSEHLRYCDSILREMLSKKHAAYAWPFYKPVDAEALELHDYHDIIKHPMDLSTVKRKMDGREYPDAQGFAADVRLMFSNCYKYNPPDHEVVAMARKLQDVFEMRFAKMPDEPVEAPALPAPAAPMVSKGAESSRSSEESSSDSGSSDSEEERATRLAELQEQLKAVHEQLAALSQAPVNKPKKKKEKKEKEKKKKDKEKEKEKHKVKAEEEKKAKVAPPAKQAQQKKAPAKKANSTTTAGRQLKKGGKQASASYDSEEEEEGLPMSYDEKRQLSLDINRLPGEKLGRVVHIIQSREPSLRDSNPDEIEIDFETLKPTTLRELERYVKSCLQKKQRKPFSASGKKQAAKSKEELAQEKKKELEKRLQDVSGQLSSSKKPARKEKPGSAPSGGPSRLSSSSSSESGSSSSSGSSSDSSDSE

[6] = target: T2, Bromodomain-containing protein 3; experiment: Binding affinity to human recombinant BRD3 BD2 (306 to 417 residues) by fluorescence polarization assay
Target sequence in this assay (Q15059 whole entry, the tested form may be a part): as above

[7] = target: T3, Bromodomain-containing protein 2 (Homo sapiens, UniProt P25440); experiment: Binding affinity to human recombinant BRD2 BD1 (72 to 205 residues) by fluorescence polarization assay
[8] = target: T3, Bromodomain-containing protein 2; experiment: Binding affinity to human recombinant BRD2 BD2 (349 to 460 residues) by fluorescence polarization assay
[9] = target: T2, Bromodomain-containing protein 3; experiment: Selectivity index, ratio of Ki for human recombinant BRD3 BD1 (24 to 144 residues) to Ki for human recombinant BRD3 BD2 (306 to 417 residues)
Target sequence in this assay (Q15059 2-726 limits assumed): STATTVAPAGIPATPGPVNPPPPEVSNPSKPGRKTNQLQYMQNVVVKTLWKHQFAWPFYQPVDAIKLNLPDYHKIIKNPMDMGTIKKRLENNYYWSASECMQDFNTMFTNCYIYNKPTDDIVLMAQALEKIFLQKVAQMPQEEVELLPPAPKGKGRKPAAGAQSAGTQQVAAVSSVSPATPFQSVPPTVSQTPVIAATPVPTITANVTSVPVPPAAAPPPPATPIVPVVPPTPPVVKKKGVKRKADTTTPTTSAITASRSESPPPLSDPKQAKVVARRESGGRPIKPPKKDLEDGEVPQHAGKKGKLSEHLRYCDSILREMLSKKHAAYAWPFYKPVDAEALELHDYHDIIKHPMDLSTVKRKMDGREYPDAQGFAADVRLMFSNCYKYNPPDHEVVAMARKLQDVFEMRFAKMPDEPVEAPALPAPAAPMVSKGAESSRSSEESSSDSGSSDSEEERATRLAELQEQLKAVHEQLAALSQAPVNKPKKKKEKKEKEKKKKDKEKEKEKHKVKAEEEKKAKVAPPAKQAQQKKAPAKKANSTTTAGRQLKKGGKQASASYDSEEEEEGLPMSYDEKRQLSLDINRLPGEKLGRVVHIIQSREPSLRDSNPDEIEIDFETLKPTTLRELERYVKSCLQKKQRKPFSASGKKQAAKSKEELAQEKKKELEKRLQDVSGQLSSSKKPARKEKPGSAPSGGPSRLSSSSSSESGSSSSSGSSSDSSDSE

[10] = test system: MV4-11; experiment: Downregulation of cMyc mRNA expression in human MV4-11 cells after 24 hrs by qRT-PCR analysis; type: functional, cell-based
[11] = test system: MV4-11; experiment: Upregulation of p21 mRNA expression in human MV4-11 cells after 24 hrs by qRT-PCR analysis; type: functional, cell-based
[12] = test system: HepG2; experiment: Downregulation of ARID5B in human HepG2 cells after 4 hrs by qRT-PCR analysis; type: functional, cell-based
[13] = test system: HepG2; experiment: Downregulation of G6PC in human HepG2 cells after 4 hrs by qRT-PCR analysis; type: functional, cell-based
[14] = test system: HepG2; experiment: Downregulation of […] in human HepG2 cells after 4 hrs by qRT-PCR analysis; type: functional, cell-based
[15] = test system: MV4-11; experiment: Decrease in c-Myc protein expression in human MV4-11 cells incubated for 24 hrs by western blot analysis; type: functional, cell-based
[16] = test system: MV4-11; experiment: Increase in p21 protein expression in human MV4-11 cells incubated for 24 hrs by western blot analysis; type: functional, cell-based

T3 sequence (P25440 whole entry, the tested form may be a part): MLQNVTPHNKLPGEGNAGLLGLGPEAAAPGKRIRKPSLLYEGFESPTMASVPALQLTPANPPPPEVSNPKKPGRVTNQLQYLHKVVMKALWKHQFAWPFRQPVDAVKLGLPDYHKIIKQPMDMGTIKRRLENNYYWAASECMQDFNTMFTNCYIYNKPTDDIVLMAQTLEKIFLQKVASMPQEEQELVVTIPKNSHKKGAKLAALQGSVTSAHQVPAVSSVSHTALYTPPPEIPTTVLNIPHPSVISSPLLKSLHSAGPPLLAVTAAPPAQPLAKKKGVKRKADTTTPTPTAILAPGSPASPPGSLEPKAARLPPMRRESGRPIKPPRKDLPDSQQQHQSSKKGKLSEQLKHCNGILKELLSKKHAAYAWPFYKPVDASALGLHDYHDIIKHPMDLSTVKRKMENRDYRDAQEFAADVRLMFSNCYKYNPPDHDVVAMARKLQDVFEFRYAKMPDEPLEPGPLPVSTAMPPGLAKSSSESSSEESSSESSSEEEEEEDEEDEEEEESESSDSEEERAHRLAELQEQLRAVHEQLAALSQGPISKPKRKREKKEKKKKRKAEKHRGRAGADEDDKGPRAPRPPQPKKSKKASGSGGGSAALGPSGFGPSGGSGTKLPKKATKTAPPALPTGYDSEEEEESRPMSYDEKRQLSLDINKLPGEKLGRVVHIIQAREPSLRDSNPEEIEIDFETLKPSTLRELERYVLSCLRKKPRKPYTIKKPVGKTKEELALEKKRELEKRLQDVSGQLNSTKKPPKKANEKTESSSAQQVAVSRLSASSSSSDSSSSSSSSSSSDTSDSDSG

Work on `Cc1nnc2n1-c1ccc(-c3cncs3)cc1C(Nc1ccc(Cl)cc1)CC2` (centres undefined) yielded an IC50 [1] of 374 nM, a Ki [2] of 266 nM and a Ki [3] of 34.8 nM. The IC50 [4] was 345 nM.
With `Cc1nnc2n1-c1ccc(-c3ccc(N4CCN(C)CC4)cc3)cc1C(Nc1ccc(Cl)cc1)CC2` (centres undefined) the IC50 [1] was 70.8 nM, the Ki [2] was 115 nM and the Ki [3] was 17.4 nM. For the same compound, the IC50 [4] was 210 nM.
`Cc1nnc2n1-c1ccc(-c3ccc(N)nc3)cc1C(Nc1ccc(C#N)cc1)CC2` (centres undefined) was tested, and the Ki [2] was 508 nM and the Ki [3] was 80.6 nM.
`CC(=O)Nc1ccc2c(c1)C(Nc1ccc(Cl)cc1)CCc1nnc(C)n1-2` (centres undefined) gave an IC50 [1] of 1030 nM, a Ki [2] of 457 nM and a Ki [3] of 50.3 nM. The IC50 [4] was 1440 nM.
`Cc1nnc2n1-c1ccc(-c3ccc(N)nc3)cc1C(Nc1cc(C3CC3)nn1C)CC2` (centres undefined) gave a Ki [2] of 1960 nM and a Ki [3] of 376 nM.
`Cc1nnc2n1-c1ccc(-c3cnn(C)c3)cc1C(Nc1ccc(Cl)cc1)CC2` (centres undefined) was tested, and the IC50 [1] was 84.4 nM, the Ki [2] was 144 nM and the Ki [3] was 14.8 nM. The Ki [5] was 188 nM, the Ki [6] was 11.1 nM and the Ki [7] was 275 nM. The Ki [8] was 9.1 nM, the IC50 [4] was 64.4 nM and the Ratio Ki [9] was 17.
Compound `Cc1nnc2n1-c1ccc(-c3cnc(N)nc3)cc1C(Nc1ccc(Cl)cc1)CC2` (centres undefined) has an IC50 [1] of 401 nM, a Ki [2] of 726 nM and a Ki [3] of 66.2 nM. The IC50 [4] was 1020 nM.
For `Cc1nnc2n1-c1ccc(-c3cn[nH]c3)cc1C(Nc1ccc(Cl)cc1)CC2` (centres undefined), the IC50 [1] was 99.1 nM, the Ki [2] was 126 nM and the Ki [3] was 15.9 nM. It also gave a Ki [5] of 114 nM, a Ki [6] of 13.9 nM and a Ki [7] of 270 nM. For the same compound, the Ki [8] was 19.1 nM, the IC50 [4] was 259 nM and the Ratio Ki [9] was 8.
Work on `Cc1nnc2n1-c1ccc(-c3ccc(N)nc3)cc1C(Nc1cccc(CO)c1)CC2` (centres undefined) yielded a Ki [2] of 1960 nM and a Ki [3] of 128 nM.
With `Cc1nnc2n1-c1ccc(-c3ccc(N)nc3)cc1C(Nc1nn(C)c3ccccc13)CC2` (centres undefined) the Ki [2] was 10600 nM and the Ki [3] was 617 nM.
`Cc1nnc2n1-c1ccc(NS(C)(=O)=O)cc1C(Nc1ccc(Cl)cc1)CC2` (centres undefined) gave an IC50 [1] of 4820 nM, a Ki [2] of 3350 nM and a Ki [3] of 918 nM. The IC50 [4] was 9060 nM.
Compound `COc1ccc(NC2CCc3nnc(C)n3-c3ccc(-c4ccc(N)nc4)cc32)cc1` (centres undefined) has a Ki [2] of 1910 nM and a Ki [3] of 174 nM.
In the case of `CCn1cc(-c2ccc3c(c2)C(Nc2ccc(Cl)cc2)CCc2nnc(C)n2-3)cn1` (centres undefined), the IC50 [1] is reported as 94.6 nM, the Ki [2] is reported as 77.2 nM and the Ki [3] is reported as 14.8 nM. For the same compound, the Ki [5] was 99.7 nM, the Ki [6] was 8.2 nM and the Ki [7] was 193 nM. It also gave a Ki [8] of 8.9 nM, an IC50 [4] of 63.5 nM and a Ratio Ki [9] of 12.
`Cc1ccc(NC2CCc3nnc(C)n3-c3ccc(-c4ccc(N)nc4)cc32)cc1` (centres undefined) showed a Ki [2] of 540 nM and a Ki [3] of 109 nM.
`Cc1nnc2n1-c1ccc(-c3ccc(CCCN4CCN(C)CC4)cc3)cc1C(Nc1ccc(Cl)cc1)CC2` (centres undefined) showed an IC50 [1] of 127 nM, a Ki [2] of 81.7 nM and a Ki [3] of 12.3 nM. It also gave an IC50 [4] of 110 nM.
`Cc1nnc2n1-c1ccc(NC(=O)C3CCN(C)CC3)cc1C(Nc1ccc(Cl)cc1)CC2` (centres undefined) gave an IC50 [1] of 2410 nM, a Ki [2] of 1490 nM and a Ki [3] of 102 nM. It also gave an IC50 [4] of 8510 nM.
`Cc1nnc2n1-c1ccc(C3=CCN(C)CC3)cc1C(Nc1ccc(Cl)cc1)CC2` (centres undefined) gave an IC50 [1] of 1780 nM, a Ki [2] of 4320 nM and a Ki [3] of 413 nM. It also gave an IC50 [4] of 3240 nM.
In the case of `Cc1nnc2n1-c1ccc(-c3ccc(N)nc3)cc1C(Nc1ccc(Cl)cc1)CC2` (centres undefined), the Ki [2] is reported as 636 nM and the Ki [3] is reported as 68.4 nM.
With `Cc1nnc2n1-c1ccc(-c3ccc(N)nc3)cc1C(Nc1ccc(C(F)(F)F)cc1)CC2` (centres undefined) the Ki [2] was 576 nM and the Ki [3] was 147 nM.
Compound `Cc1nnc2n1-c1ccc(Br)cc1C(Nc1ccc(Cl)cc1)CC2` (racemic) has an IC50 [1] of 2040 nM, a Ki [2] of over 2000 nM and a Ki [3] of 736 nM. The IC50 [4] was 5310 nM.
Work on `Cc1nnc2n1-c1ccc(C3=CCNCC3)cc1C(Nc1ccc(Cl)cc1)CC2` (centres undefined) yielded an IC50 [1] of 2290 nM, a Ki [2] of 4450 nM and a Ki [3] of 284 nM. The IC50 [4] was 5700 nM.
Compound `Cc1nnc2n1-c1ccc(-c3cnn(C)c3)cc1[C@@H](Nc1ccc(Cl)cc1)CC2` has an IC50 [1] of 7730 nM, a Ki [2] of 5000 nM and a Ki [3] of 945 nM. The IC50 [4] was 4240 nM.
With `Cc1nnc2n1-c1ccc(-c3ccc(CN4CCN(C)CC4)cc3)cc1C(Nc1ccc(Cl)cc1)CC2` (centres undefined) the IC50 [1] was 112 nM, the Ki [2] was 271 nM and the Ki [3] was 18 nM. The IC50 [4] was 241 nM.
With `Cc1nnc2n1-c1ccc(-c3ccc(N)nc3)cc1C(Nc1ccc(F)cc1)CC2` (centres undefined) the Ki [2] was 725 nM and the Ki [3] was 92.6 nM.
`Cc1nnc2n1-c1ccc(-c3cnn(C)c3)cc1C(Nc1cccc3ccccc13)CC2` (centres undefined) gave an IC50 [1] of 107 nM, a Ki [2] of 294 nM and a Ki [3] of 21.3 nM. For the same compound, the IC50 [4] was 533 nM.
In the case of `Cc1nnc2n1-c1ccc(N)cc1C(Nc1ccc(Cl)cc1)CC2` (centres undefined), the IC50 [1] is reported as 4330 nM, the Ki [2] is reported as 11100 nM and the Ki [3] is reported as 1230 nM. The IC50 [4] was 7950 nM.
For `Cc1nnc2n1-c1ccc(-c3cnoc3)cc1C(Nc1ccc(Cl)cc1)CC2` (centres undefined), the IC50 [1] was 6560 nM, the Ki [2] was 232 nM and the Ki [3] was 83.7 nM. The IC50 [4] was 7720 nM.
`Cc1nnc2n1-c1ccc(-c3ccc(N(C)C)cc3)cc1C(Nc1ccc(Cl)cc1)CC2` (centres undefined) showed an IC50 [1] of 1950 nM, a Ki [2] of 466 nM and a Ki [3] of 65.4 nM. The IC50 [4] was 1020 nM.
Work on `Cc1nnc2n1-c1ccc(-c3ccc4c(c3)CCC(=O)N4)cc1C(Nc1ccc(Cl)cc1)CC2` (centres undefined) yielded an IC50 [1] of 143 nM, a Ki [2] of 310 nM and a Ki [3] of 68.8 nM. The IC50 [4] was 132 nM.
`COc1ccc2c(c1)C(Nc1ccc(Cl)cc1)CCc1nnc(C)n1-2` (centres undefined) showed an IC50 [1] of 1160 nM, a Ki [2] of 1300 nM and a Ki [3] of 249 nM. For the same compound, the IC50 [4] was 1400 nM.
With `Cc1sc2c(c1C)C(c1ccc(Cl)cc1)=N[C@@H](CC(=O)Nc1ccc(O)cc1)c1nnc(C)n1-2` [BIRABRESIB] the IC50 [1] was 17.6 nM, the IC50 [4] was 22.7 nM and the inhibition [10] was “Dose-dependent effect”. The Activity [11] was “Dose-dependent effect”, the inhibition [12] was “Dose-dependent effect” and the inhibition [13] was “Dose-dependent effect”. For the same compound, the inhibition [14] was “Dose-dependent effect”, the inhibition [15] was “Dose-dependent effect” and the Activity [16] was “Dose-dependent effect”.
Compound `Cc1nnc2n1-c1ccc(-c3ccc(C(=O)O)cc3)cc1C(Nc1ccc(Cl)cc1)CC2` (centres undefined) has an IC50 [1] of 3260 nM, a Ki [2] of 247 nM and a Ki [3] of 47.3 nM. For the same compound, the IC50 [4] was 7060 nM.
Work on `Cc1nnc2n1-c1ccc(-c3ccc(N)nc3)cc1C(Nc1cccc3ccccc13)CC2` (centres undefined) yielded a Ki [2] of 712 nM and a Ki [3] of 41.5 nM.
`Cc1nnc2n1-c1ccc(-c3ccnc(N)c3)cc1C(Nc1ccc(Cl)cc1)CC2` (centres undefined) was tested, and the IC50 [1] was 500 nM, the Ki [2] was 535 nM and the Ki [3] was 74.7 nM. For the same compound, the IC50 [4] was 345 nM.
Work on `Cc1nnc2n1-c1ccc(-c3ccc(CCN4CCN(C)CC4)cc3)cc1C(Nc1ccc(Cl)cc1)CC2` (centres undefined) yielded an IC50 [1] of 165 nM, a Ki [2] of 372 nM and a Ki [3] of 54.4 nM. For the same compound, the IC50 [4] was 258 nM.
`Cc1nnc2n1-c1ccc(-c3cnn(C)c3)cc1C(Nc1ccc3ccccc3c1)CC2` (centres undefined) gave an IC50 [1] of 116 nM, a Ki [2] of 419 nM and a Ki [3] of 24.7 nM. For the same compound, the IC50 [4] was 535 nM.
